Reference: US20230312556A1, “ARYLAMIDE COMPOUND, PHARMACEUTICAL COMPOSITION COMPRISING SAME, AND PREPARATION METHOD THEREFOR AND USE THEREOF” (SICHUAN KELUN-BIOTECH BIOPHARMACEUTICAL CO., LTD., priority 2020, published 2023)

Key:
[1] = system: human hepatocellular carcinoma cell HepG2 (NRAS-Q61K mutation); experiment: Cancer cell proliferation inhibition assay, HepG2; type: cell-based; details: 72 h incubation, Cell Titer Glo
Description: (§1) The inhibitory effects of the compounds of the present invention on cancer cell proliferation were further evaluated by testing the effects of the compounds of the present invention on the growth of cancer cells.
(§2) In this example, human melanoma cell A375 (BRAF-V600E mutation, purchased from the Cell Bank of the Chinese Academy of Sciences) and human hepatocellular carcinoma cell HepG2 (NRAS-Q61K mutation, purchased from ATCC, USA) were employed.
(§3) In this example, the test compounds at various concentrations (100000 nM, 30000 nM, 10000 nM, 3000 nM, 1000 nM, 300 nM, 100 nM, 30 nM, 10 nM) were added to the above cells, and the incubation was performed for 72 h. The inhibitory activity of the compounds was tested by measuring ATP in living cells using the Cell Titer Glo Kit (Promega).
(§4) The IC50 values of the compounds of the present invention for each tested cell were determined, and the test results are as follows: […]

[2] = system: human melanoma cell A375 (BRAF-V600E mutation); experiment: Cancer cell proliferation inhibition assay, A375; type: cell-based; details: A-375, 72 h incubation, Cell Titer Glo
Description: as §1, §2, §3, §4

Row | Compound | IC50 [1] | IC50 [2]
1 | COc1ccc(Nc2nccc3c(NC(=O)c4cnc5c(N)ncnn45)c(C)ccc23)cc1Cl [Compound 56, 4-amino-N-(1-((3-chloro-4-methoxyphenyl)amino)-6-methylisoquinolin-5-yl)imidazo[2,1-f][1,2,4]triazine-7-carboxamide] | 22.2 ± 2.9 nM | 67 ± 7.3 nM
2 | COc1ccc(Nc2nccc3c(NC(=O)c4cccc5c(N)ncnc45)c(C)ccc23)cc1 [Compound 57, 4-amino-N-(1-((4-methoxyphenyl)amino)-6-methylisoquinolin-5-yl)quinazoline-8-carboxamide] | 24.3 ± 3.3 nM | 66.1 ± 17 nM
3 | Cc1ccc2c(Nc3ccc(N(C)C)nc3)nccc2c1NC(=O)c1cccc2c(N)ncnc12 [Compound 59, 4-amino-N-(1-((6-(dimethylamino)pyridin-3-yl)amino)-6-methylisoquinolin-5-yl)quinazoline-8-carboxamide] | 211 ± 16.6 nM | 85 ± 5.2 nM
4 | COc1ccc(Nc2nccc3c(NC(=O)c4cnc5c(N)ncnn45)c(C)ccc23)c(F)c1 [Compound 61, 4-amino-N-(1-((2-fluoro-4-methoxyphenyl)amino)-6-methylisoquinolin-5-yl)imidazo[2,1-f][1,2,4]triazine-7-carboxamide] | 21.3 ± 4.88 nM | 141 ± 4.88 nM
5 | Cc1ccc2c(Nc3ccc(CN(C)C)c(C(F)(F)F)c3)nccc2c1NC(=O)c1cnc2c(N)ncnn12 [Compound 62, 4-amino-N-(1-((4-((dimethylamino)methyl)-3-(trifluoromethyl)phenyl)amino)-6-methylisoquinolin-5-yl)imidazo[2,1-f][1,2,4]triazine-7-carboxamide] | 82.2 ± 10.1 nM | 49.1 ± 2.74 nM
6 | CC(=O)c1ccc(Nc2nccc3c(NC(=O)c4cccc5c(N)ncnc45)c(C)ccc23)cc1 [Compound 63, N-(1-((4-acetylphenyl)amino)-6-methylisoquinolin-5-yl)-4-aminoquinazoline-8-carboxamide] | 28.6 ± 2.7 nM | 46.3 ± 1.79 nM
7 | Cc1ccc2c(Nc3ccc(Cl)c(CN(C)C)c3)nccc2c1NC(=O)c1cccc2c(N)ncnc12 [Compound 64, 4-amino-N-(1-((4-chloro-3-((dimethylamino)methyl)phenyl)amino)-6-methylisoquinolin-5-yl)quinazoline-8-carboxamide] | 75.2 ± 6.9 nM | 70.3 ± 8.5 nM
8 | Cc1ccc(Nc2nccc3c(NC(=O)c4cccc5c(N)ncnc45)c(C)ccc23)cc1 [Compound 65, 4-amino-N-(6-methyl-1-(p-tolylamino)isoquinolin-5-yl)quinazoline-8-carboxamide] | 38.8 ± 3 nM | 47.1 ± 9.4 nM
9 | Cc1ccc2c(Nc3cccc(Cl)c3F)nccc2c1NC(=O)c1nccc2c(N)ncnc12 [Compound 66, 4-amino-N-(1-((3-chloro-2-fluorophenyl)amino)-6-methylisoquinolin-5-yl)pyrido[3,4-d]pyrimidine-8-carboxamide] | 46.1 ± 9.6 nM | 166 ± 6.1 nM
10 | COc1ccc(Nc2nccc3c(NC(=O)c4cccc5c(N)ncnc45)c(C)ccc23)cc1OC [Compound 68, 4-amino-N-(1-((3,4-dimethoxyphenyl)amino)-6-methylisoquinolin-5-yl)quinazoline-8-carboxamide] | 109 ± 12.2 nM | 104 ± 20.6 nM
11 | Cc1ccc2c(Nc3cccc(Cl)c3F)nccc2c1NC(=O)c1cncc2c(N)ncnc12 [Compound 69, 4-amino-N-(1-((3-chloro-2-fluorophenyl)amino)-6-methylisoquinolin-5-yl)pyrido[4,3-d]pyrimidine-8-carboxamide] | 49.6 ± 9.7 nM | 94.6 ± 4 nM
12 | Cc1ccc2c(Nc3ccc(Cl)c(F)c3F)nccc2c1NC(=O)c1cnc2c(N)ncnn12 [Compound 70, 4-amino-N-(1-((4-chloro-2,3-difluorophenyl)amino)-6-methylisoquinolin-5-yl)imidazo[2,1-f][1,2,4]triazine-7-carboxamide] | 59.9 ± 6.8 nM | 190 ± 23.8 nM
